# According to patent publication US20140045697A1, “ANDROSTANEDIOL DERIVATIVES AS PLANT GROWTH REGULATOR COMPOUNDS” (priority 2011, published 2014):
# Experiments:
# [1] = system: Phaseolus vulgaris L. cv. Pinto; assay: Bean second and third internode elongation bioassay (glass house); assay type: in vivo; conditions: for % increase compared with control, Total elongation (internode 2 + internode 3) / % increase compared with control, Internode 2 / % increase compared with control, Internode 3: applied through wound site, scored after 10 days; for % increase compared with control, Internode 2 / % increase compared with control, Internode 3: 8 replicates; for elongation of internode 3 (in words) / elongation of internodes by rate (in words): Table 2; for elongation of internode 3 (in words): standard at low concentrations; for elongation of internodes by rate (in words): rates 6, 20 and 200 per plant
# Experimental: Bean seeds of Phaseolus vulgaris L. cv. Pinto were germinated in drench soil in 140 ml pots; pots with 7-day old seedlings were thinned out to one seedling per pot. Young plants of 12-14 days with 2-3 mm long second internodes were used in bioassay screening experiments. Germination, early plant growth as well the screening of growth symptoms of young plants after application of compounds of formula (I) were done under similar glass house conditions: temperature 22° C. day/18° C. night, humidity 60%, day length 15 h day/9 h night. Plants were watered manually on a daily basis, as needed.
# Compounds of formula (I) were applied through a wound site using a micropipette. The wound site was introduced through removal of one of the twin leaves of the first set of true leaves. Small amounts of compounds were delivered at a time. The wound site was sealed with […] of Vaseline that was applied using a cotton ear bud. Compounds of formula (I) were dissolved in 99% ethanol and for the control/check a similar volume was used as for all treatments and in this case, the solution only contained 99% ethanol. Dilutions of stock solutions were made with distilled water. Eight replicates were included per treatment, including for the control. The scoring of growth elongation effects was performed after 10 days.
# Growth promotion of bean plants by compounds of formula (I) was tested by scoring elongation of the second and third internode of bean plants. Scoring of growth stimulation effects was done by careful cutting and measuring the length of the two internodes. All compounds were tested at three rates (in […] per plant): 6, 20 and 200. Values represent the average percentage increase in stem elongation compared with the untreated control.
# maize = assay: Field trials on maize at 2 locations in South Africa (Kransfontein, Lindley), spray application at 5-6 leaf growth stage; assay type: in vivo; conditions: for Number of cobs per plot / Plant height 9-10 leaf stage / Plant height 10 leaf stage / Yield / Plant height 6-7 leaf stage / Plant height 9 leaf stage: mean of 6 replicates
# Experimental: Field trials were carried out at 2 locations in South Africa on maize. Treatments as shown in tables 3 and 4 were applied by spray application at 5-6 leaf growth stage. Assessments were made of plant height, number of maize cobs per plot, and total maize yield at the end of the trial. The results in Table 3 and 4 are the mean of 6 replicates per treatment. The standard is an analog of the Formula I of the present invention, as described in WO2009/115060 (formula IV).
structure (smiles),measurement,setting,value
"CC(C)[C@@H](C)[C@@H](O)[C@H](O)[C@@H](C)[C@H]1CC[C@H]2[C@@H]3COC(=O)[C@H]4C[C@H](O)[C@H](O)C[C@]4(C)[C@H]3CC[C@]12C [Standard, 24-epi-brassinolide, reference compound]","% increase compared with control, Total elongation (internode 2 + internode 3)",[1]; 6 μg per plant,154%
same,"% increase compared with control, Internode 2",[1]; 6 μg per plant,150%
same,"% increase compared with control, Internode 3",[1]; 6 μg per plant,4%
same,elongation of internode 3 (in words),[1],almost no elongation of the third internode
same,"Number of cobs per plot, % increase compared to untreated control","maize; Kransfontein, 0.3 g AI/ha",−4.3%
same,"Plant height 9-10 leaf stage, % increase compared to untreated control","maize; Kransfontein, 0.3 g AI/ha",1.7%
same,"Plant height 10 leaf stage, % increase compared to untreated control","maize; Kransfontein, 0.3 g AI/ha",2.1%
same,"Yield, % increase compared to untreated control","maize; Kransfontein, 0.3 g AI/ha",−2.8%
same,Number of cobs per plot,"maize; Kransfontein, 0.3 g AI/ha",33.3
same,Plant height 9-10 leaf stage,"maize; Kransfontein, 0.3 g AI/ha",36.3 cm
same,Plant height 10 leaf stage,"maize; Kransfontein, 0.3 g AI/ha",48.7 cm
same,Yield,"maize; Kransfontein, 0.3 g AI/ha",4017.9 kg/ha
same,"Number of cobs per plot, % increase compared to untreated control","maize; Kransfontein, 0.6 g AI/ha",−2.9%
same,"Plant height 9-10 leaf stage, % increase compared to untreated control","maize; Kransfontein, 0.6 g AI/ha",3.6%
same,"Plant height 10 leaf stage, % increase compared to untreated control","maize; Kransfontein, 0.6 g AI/ha",3.4%
same,"Yield, % increase compared to untreated control","maize; Kransfontein, 0.6 g AI/ha",−3.6%
same,Number of cobs per plot,"maize; Kransfontein, 0.6 g AI/ha",33.8
same,Plant height 9-10 leaf stage,"maize; Kransfontein, 0.6 g AI/ha",37.0 cm
same,Plant height 10 leaf stage,"maize; Kransfontein, 0.6 g AI/ha",49.3 cm
same,Yield,"maize; Kransfontein, 0.6 g AI/ha",3985.2 kg/ha
same,"Number of cobs per plot, % increase compared to untreated control","maize; Lindley, 0.3 g AI/ha",1.1%
same,"Plant height 6-7 leaf stage, % increase compared to untreated control","maize; Lindley, 0.3 g AI/ha",3.4%
same,"Plant height 9 leaf stage, % increase compared to untreated control","maize; Lindley, 0.3 g AI/ha",1.6%
same,"Yield, % increase compared to untreated control","maize; Lindley, 0.3 g AI/ha",2.0%
same,Number of cobs per plot,"maize; Lindley, 0.3 g AI/ha",60.0
same,Plant height 6-7 leaf stage,"maize; Lindley, 0.3 g AI/ha",21.5 cm
same,Plant height 9 leaf stage,"maize; Lindley, 0.3 g AI/ha",31.0 cm
same,Yield,"maize; Lindley, 0.3 g AI/ha",10976.9 kg/ha
same,"Number of cobs per plot, % increase compared to untreated control","maize; Lindley, 0.6 g AI/ha",2.5%
same,"Plant height 6-7 leaf stage, % increase compared to untreated control","maize; Lindley, 0.6 g AI/ha",1.9%
same,"Plant height 9 leaf stage, % increase compared to untreated control","maize; Lindley, 0.6 g AI/ha",2.6%
same,"Yield, % increase compared to untreated control","maize; Lindley, 0.6 g AI/ha",1.2%
same,Number of cobs per plot,"maize; Lindley, 0.6 g AI/ha",60.8
same,Plant height 6-7 leaf stage,"maize; Lindley, 0.6 g AI/ha",21.2 cm
same,Plant height 9 leaf stage,"maize; Lindley, 0.6 g AI/ha",31.3 cm
same,Yield,"maize; Lindley, 0.6 g AI/ha",10890.5 kg/ha
"C[C@]12CCC3[C@@H](CC(F)(F)[C@H]4C[C@H](O)CC[C@]34C)C1CC[C@@H]2O (stereo partly drawn) [Compound P2, 6α,6β-difluoro-3α,17β-diol-5α-androstan]","% increase compared with control, Total elongation (internode 2 + internode 3)",[1]; 6 μg per plant,0%
same,"% increase compared with control, Internode 2",[1]; 6 μg per plant,0%
same,"% increase compared with control, Internode 3",[1]; 6 μg per plant,0%
same,"% increase compared with control, Total elongation (internode 2 + internode 3)",[1]; 20 μg per plant,160%
same,"% increase compared with control, Internode 2",[1]; 20 μg per plant,50%
same,"% increase compared with control, Internode 3",[1]; 20 μg per plant,110%
same,"% increase compared with control, Total elongation (internode 2 + internode 3)",[1]; 200 μg per plant,54%
same,"% increase compared with control, Internode 2",[1]; 200 μg per plant,31%
same,"% increase compared with control, Internode 3",[1]; 200 μg per plant,23%
same,elongation of internode 3 (in words),[1],strong elongation of internode 3
same,elongation of internodes by rate (in words),[1],"at the highest two rates, but not at the lowest rate"
"C[C@]12CCC3[C@@H](CC(F)(F)[C@@]4(F)C[C@H](O)CC[C@]34C)C1CC[C@@H]2O (stereo partly drawn) [Compound P1, 5-Fluoro-6α,6β-difluoro-3α,17β-dihydroxy-5α-androstan]","% increase compared with control, Total elongation (internode 2 + internode 3)",[1]; 6 μg per plant,0%
same,"% increase compared with control, Internode 2",[1]; 6 μg per plant,0%
same,"% increase compared with control, Internode 3",[1]; 6 μg per plant,0%
same,"% increase compared with control, Total elongation (internode 2 + internode 3)",[1]; 20 μg per plant,160%
same,"% increase compared with control, Internode 2",[1]; 20 μg per plant,44%
same,"% increase compared with control, Internode 3",[1]; 20 μg per plant,116%
same,"% increase compared with control, Total elongation (internode 2 + internode 3)",[1]; 200 μg per plant,108%
same,"% increase compared with control, Internode 2",[1]; 200 μg per plant,30%
same,"% increase compared with control, Internode 3",[1]; 200 μg per plant,78%
same,elongation of internode 3 (in words),[1],strong elongation of internode 3
same,elongation of internodes by rate (in words),[1],"at the highest two rates, but not at the lowest rate"
"CO[C@]12C[C@H](O)CC[C@]1(C)[C@H]1CC[C@]3(C)[C@@H](O)CC[C@H]3[C@@H]1CC2=O [Compound P3, 5-methoxy-3α,17β-dihydroxyl-5α-androstan-6-one]","% increase compared with control, Total elongation (internode 2 + internode 3)",[1]; 6 μg per plant,17%
same,"% increase compared with control, Internode 2",[1]; 6 μg per plant,13%
same,"% increase compared with control, Internode 3",[1]; 6 μg per plant,4%
same,"% increase compared with control, Total elongation (internode 2 + internode 3)",[1]; 20 μg per plant,54%
same,"% increase compared with control, Internode 2",[1]; 20 μg per plant,6%
same,"% increase compared with control, Internode 3",[1]; 20 μg per plant,48%
same,"% increase compared with control, Total elongation (internode 2 + internode 3)",[1]; 200 μg per plant,113%
same,"% increase compared with control, Internode 2",[1]; 200 μg per plant,43%
same,"% increase compared with control, Internode 3",[1]; 200 μg per plant,70%
same,elongation of internode 3 (in words),[1],strong elongation of internode 3
same,elongation of internodes by rate (in words),[1],elongation of both internodes at all three rates tested
same,"Number of cobs per plot, % increase compared to untreated control","maize; Kransfontein, 0.3 g AI/ha",0.5%
same,"Plant height 9-10 leaf stage, % increase compared to untreated control","maize; Kransfontein, 0.3 g AI/ha",6.4%
same,"Plant height 10 leaf stage, % increase compared to untreated control","maize; Kransfontein, 0.3 g AI/ha",3.8%
same,"Yield, % increase compared to untreated control","maize; Kransfontein, 0.3 g AI/ha",1.7%
same,Number of cobs per plot,"maize; Kransfontein, 0.3 g AI/ha",35.0
same,Plant height 9-10 leaf stage,"maize; Kransfontein, 0.3 g AI/ha",38.0 cm
same,Plant height 10 leaf stage,"maize; Kransfontein, 0.3 g AI/ha",49.5 cm
same,Yield,"maize; Kransfontein, 0.3 g AI/ha",4203.2 kg/ha
same,"Number of cobs per plot, % increase compared to untreated control","maize; Kransfontein, 0.6 g AI/ha",7.7%
same,"Plant height 9-10 leaf stage, % increase compared to untreated control","maize; Kransfontein, 0.6 g AI/ha",3.1%
same,"Plant height 10 leaf stage, % increase compared to untreated control","maize; Kransfontein, 0.6 g AI/ha",4.2%
same,"Yield, % increase compared to untreated control","maize; Kransfontein, 0.6 g AI/ha",2.3%
same,Number of cobs per plot,"maize; Kransfontein, 0.6 g AI/ha",37.5
same,Plant height 9-10 leaf stage,"maize; Kransfontein, 0.6 g AI/ha",36.8 cm
same,Plant height 10 leaf stage,"maize; Kransfontein, 0.6 g AI/ha",49.7 cm
same,Yield,"maize; Kransfontein, 0.6 g AI/ha",4227.3 kg/ha
same,"Number of cobs per plot, % increase compared to untreated control","maize; Lindley, 0.3 g AI/ha",2.0%
same,"Plant height 6-7 leaf stage, % increase compared to untreated control","maize; Lindley, 0.3 g AI/ha",4.8%
same,"Plant height 9 leaf stage, % increase compared to untreated control","maize; Lindley, 0.3 g AI/ha",5.9%
same,"Yield, % increase compared to untreated control","maize; Lindley, 0.3 g AI/ha",3.3%
same,Number of cobs per plot,"maize; Lindley, 0.3 g AI/ha",60.5
same,Plant height 6-7 leaf stage,"maize; Lindley, 0.3 g AI/ha",21.8 cm
same,Plant height 9 leaf stage,"maize; Lindley, 0.3 g AI/ha",32.3 cm
same,Yield,"maize; Lindley, 0.3 g AI/ha",1115.9 kg/ha
same,"Number of cobs per plot, % increase compared to untreated control","maize; Lindley, 0.6 g AI/ha",4.5%
same,"Plant height 6-7 leaf stage, % increase compared to untreated control","maize; Lindley, 0.6 g AI/ha",3.4%
same,"Plant height 9 leaf stage, % increase compared to untreated control","maize; Lindley, 0.6 g AI/ha",8.9%
same,"Yield, % increase compared to untreated control","maize; Lindley, 0.6 g AI/ha",3.1%
same,Number of cobs per plot,"maize; Lindley, 0.6 g AI/ha",62.0
same,Plant height 6-7 leaf stage,"maize; Lindley, 0.6 g AI/ha",21.5 cm
same,Plant height 9 leaf stage,"maize; Lindley, 0.6 g AI/ha",33.2 cm
same,Yield,"maize; Lindley, 0.6 g AI/ha",11099.4 kg/ha
